Among the test systems are A498 renal; BT-549 breast; DU-145 prostate; EKVX NSCLC; HS 578T breast; MCF7 breast; MDA-MB-435; RXF 393 renal; T-47D breast; OVCAR-8 ovarian.
Test in all cases: DTP human tumour cell line panel, 48 h

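Cultured in 96-well plates, cells were exposed to test compound for 48 hours across five concentrations. Here, GI50 denotes the concentration required for 50% inhibition of growth. TGI: total growth inhibition.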 A value given as a limit tells only on which side of the number the result lay.

In the case of `COC(=O)C1=C(O)C(C(=O)OC)[C@@]2(O)[C@@H](C(=O)OC)CC[C@@H]1[C@@H]2C(=O)OC` (stereo not given in full), the TGI with A498 renal is 55.4 µM; in the experiment with BT-549 breast, more than 100 µM; with DU-145 prostate it was more than 100 µM; with EKVX NSCLC, 85.7 µM; with HS 578T breast, 33.9 µM; in the experiment on MCF7 breast it was more than 100 µM. In addition, the figures for the TGI in the experiment on MDA-MB-435, in the experiment with RXF 393 renal and with T-47D breast were more than 100 µM, 61.2 µM and more than 100 µM, respectively.

Consider `COc1cc(Cc2ccc3c(c2C#N)N(C)c2ccccc2S3)cc(OC)c1OC`, for which the TGI in the experiment on A498 renal, with EKVX NSCLC, in the experiment on OVCAR-8 ovarian and in the experiment on RXF 393 renal was more than 100 µM each time.

Consider `C/C(=N\NC(=S)Nc1ccc(Cl)cc1)c1nc2ncccc2[nH]1`, for which the TGI in the experiment with A498 renal is 20.2 µM; in the experiment with BT-549 breast, 11.1 µM; in the experiment on DU-145 prostate it was 14.1 µM; in the experiment with EKVX NSCLC, 13.1 µM; in the experiment with HS 578T breast, 71.8 µM; in the experiment on MCF7 breast, 11.2 µM. Also, the results for the TGI in the experiment on MDA-MB-435 and in the experiment on T-47D breast were 15.1 µM and 20.9 µM, respectively.

Take `CN(CCO)/N=N/c1nc[nH]c1C(N)=O`: the TGI in the experiment with A498 renal, in the experiment on EKVX NSCLC, in the experiment on OVCAR-8 ovarian and in the experiment with RXF 393 renal was more than 100 µM each time.

On to `CCOC(=O)Oc1ccc2c(c1)c(=O)c1c(NCCCN(CC)CC)ccc3nnn2c31`, for which the TGI in the experiment with A498 renal came out at 23.2 µM; in the experiment on BT-549 breast, 32 µM; with DU-145 prostate, 17.4 µM; with EKVX NSCLC it was 23 µM; with HS 578T breast it was 40.7 µM; in the experiment with MCF7 breast, 15.7 µM. Also, the TGI with MDA-MB-435 was 18.3 µM; in the experiment on OVCAR-8 ovarian it was 19.5 µM; in the experiment with RXF 393 renal, 19.8 µM; with T-47D breast it was 31.1 µM.

Regarding `Cc1nc(N(CCO)CCO)c2sc(=S)n(-c3ccccc3)c2n1`, the TGI in the experiment on A498 renal and in the experiment on OVCAR-8 ovarian was more than 100 µM each time.

`NC(=S)N/N=C/c1ccc(OC(=O)COc2ccccc2Cl)cn1`: the TGI with A498 renal was more than 100 µM; in the experiment with EKVX NSCLC, 97.8 µM; in the experiment on MCF7 breast, more than 100 µM; in the experiment on OVCAR-8 ovarian, more than 100 µM; in the experiment on RXF 393 renal, more than 100 µM.

`O=c1oc2c(ccc3c(O)cccc32)c2c1CCCC2`: the TGI with A498 renal is 80.8 µM; in the experiment with BT-549 breast, 73.6 µM; with DU-145 prostate, more than 100 µM; in the experiment on EKVX NSCLC, more than 100 µM; in the experiment with HS 578T breast it was more than 100 µM; with MCF7 breast, more than 100 µM. For the same compound, the TGI is more than 100 µM with MDA-MB-435, more than 100 µM in the experiment with OVCAR-8 ovarian, 39.8 µM with RXF 393 renal and more than 100 µM in the experiment on T-47D breast.

Regarding `Cc1ccc(S(=O)(=O)Nc2cc(Sc3ccccc3)c(O)c3ccccc23)cc1`, the GI50 in the experiment with A498 renal was 13.1 µM; with BT-549 breast, 11.9 µM; in the experiment with DU-145 prostate, 3.83 µM; in the experiment on EKVX NSCLC it was 12.3 µM; in the experiment with HS 578T breast, 3.27 µM; in the experiment on MCF7 breast it was 1.95 µM. Besides, the GI50 with MDA-MB-435 is 1.8 µM; in the experiment on OVCAR-8 ovarian it was 2.28 µM; with RXF 393 renal, 3.11 µM; with T-47D breast, 2.25 µM. In addition, the TGI came to 28.8 µM in the experiment with A498 renal; 24.2 µM in the experiment on BT-549 breast; 13.6 µM with DU-145 prostate; 25.3 µM in the experiment on EKVX NSCLC; 10.8 µM with HS 578T breast; 4.79 µM with MCF7 breast. The TGI was determined as 3.26 µM in the experiment with MDA-MB-435, 5.88 µM in the experiment on OVCAR-8 ovarian, 9.38 µM in the experiment with RXF 393 renal and 5.99 µM with T-47D breast.

Turning to `C/C([O-])=C(/c1nc(-c2ccc([N+](=O)[O-])o2)no1)[n+]1cc(C)ccc1C`, the TGI with A498 renal is 33.8 µM; in the experiment on EKVX NSCLC it was more than 100 µM; with MCF7 breast it was 16.2 µM; in the experiment on OVCAR-8 ovarian, more than 76.6 µM; in the experiment on RXF 393 renal, 43.2 µM.

As to `BrC1=CN2C[n+]3cc(Br)c4ccccc4c3N=C2c2ccccc21`, the TGI in the experiment with A498 renal was 70.9 µM; in the experiment with BT-549 breast, 37.2 µM; with DU-145 prostate it was 33.3 µM; in the experiment with HS 578T breast it was 61 µM; with MCF7 breast, 21.5 µM; in the experiment with MDA-MB-435, 19.2 µM. The TGI with OVCAR-8 ovarian was 38.6 µM; with T-47D breast, 18.8 µM.

Regarding `CCOC(=O)/C(=N/Nc1ccc(Cl)cc1)N1C(=S)C=C(C)NN(C)C1=S`, the TGI in the experiment with DU-145 prostate is more than 100 µM; in the experiment with EKVX NSCLC, 73 µM; with HS 578T breast, more than 100 µM; in the experiment on MCF7 breast it was more than 100 µM; in the experiment with MDA-MB-435, more than 100 µM; with OVCAR-8 ovarian, 73.1 µM. Also, the TGI was 41.1 µM in the experiment with RXF 393 renal and 98.3 µM in the experiment on T-47D breast.

With `CCOC(=O)C(=O)Nc1cccc(C)c1C`, the TGI in the experiment on A498 renal, with EKVX NSCLC and with OVCAR-8 ovarian was more than 100 µM throughout.

Turning to `COc1cc2nc(N3CCC[C@@H](NC4=CC(=O)c5ccccc5C4=O)C3)nc(N)c2cc1OC`, the GI50 with A498 renal was 18.5 µM; in the experiment with BT-549 breast it was 2.1 µM; with DU-145 prostate, 2.03 µM; in the experiment with HS 578T breast, 2.14 µM; with MCF7 breast, 1.71 µM; in the experiment on MDA-MB-435 it was 2 µM. Besides, the GI50 with T-47D breast was 1.95 µM. Further, the TGI is 40.9 µM with A498 renal; 4.66 µM with BT-549 breast; 3.78 µM in the experiment on DU-145 prostate; 4.95 µM in the experiment with HS 578T breast; 3.39 µM in the experiment with MCF7 breast; 4.14 µM with MDA-MB-435. Besides, in the experiment with T-47D breast, the TGI stood at 3.74 µM.

The record behind these values is PubChem BioAssay (NCI).
